Test results as given in patent EP0049913A2, “New ethenylimidazole derivatives, processes for their preparation and pharmaceutical compositions containing them; intermediates, useful in their preparation and a process for the preparation thereof” (GIST-BROCADES N.V., priority 1980, dated 1982).
Values after ≈ are worked out from the molar mass of the structure shown. Counter-ions that a name gives are not always drawn.

test system: Candida albicans strain A 7; experiment: method B: vaginitis candidamycetica in mice (vaginal reduction); type: in vivo; conditions: local intravaginal treatment in Plastibase, two applications daily for four days, clotrimazol = 100%
Procedure: Female Swiss SPF mice, weighing 19-21 g, fifteen animals per group, following an intramuscular premedication by Dimenformon prolongatum, were inoculated intravaginally with +5.105 CFU of Candida albicans strain A 7, harvested from a culture on Mycological Agar and suspended in physiological saline.
The treatment commenced 72 hours after infection when the candidiasis had reached its peak. A four day local treatment period was employed, consisting of two applications daily of 0.02 ml of antimycotics in Plastibase intravaginally. Alternatively, the test compound was administered orally in three doses daily for three days.
On the seventh day after infection the mice were killed, the vagina was excised and homogenized in saline and cultivated on Mycological Agar. The yeast cells were then counted and expressed as CFU/vagina. Results were analysed statistically using the T-test. The results were compared with those obtained with clotrimazol, the action of which was considered as 100%.

Row | Structure (SMILES) | vag.red. %
1 | Clc1ccc(C(=Cn2ccnc2)C2CCCCC2)c(Cl)c1 [VI, 1-[2-cyclohexyl-2-(2,4-dichlorophenyl)ethenyl]-IH-imidazole hydrochloride] | 97%
2 | CCC(C)C(=Cn1ccnc1)c1ccc(Cl)cc1 (stereo not shown) [II, 1-[2-(4-chlorophenyl)-3-methyl-1-pentenyl] -lH-imidazole] | 98%
3 | CCCC(=Cn1ccnc1)c1ccc(Cl)cc1Cl.Cl [I, 1-[2-(2,4-dichlorophenyl)-1-pentenyl]-1H-imidazol hydrochloride] | 35%

same assay, conditions: p.o., three doses daily for three days, clotrimazol = 100%

Row | Structure (SMILES) | vag.red. %
4 | Clc1ccc(C(=Cn2ccnc2)C2CCCCC2)c(Cl)c1 [VI, 1-[2-cyclohexyl-2-(2,4-dichlorophenyl)ethenyl]-IH-imidazole hydrochloride] | 52%

test system: Candida albicans strain A 7; experiment: method A: systemic infection with Candida albicans in mice; type: in vivo; conditions: i.p., three doses daily for 3 days, control animals = 1
Procedure: A. Testing of compounds against systemic infection with Candida albicans in mice.
Female Swiss SPF mice, weighing […], ten animals per group, were challenged intravenously with 0.5 ml Candida albicans strain A 7 suspension containing sufficient yeast cells to kill 50% of the untreated animals within 5 days. The treatment consisted of three doses daily administered for 3 days either orally or intraperitoneally. Infected, non treated mice served as controls for mortality. The number of mice surviving the challenge was recorded daily and the ratio between the "median survival duration (days)" of the treated and untreated mice was determined, the survival duration of the control animals being graded as 1 (IMSD = Index Median Survival Duration).

Row | Structure (SMILES) | IMSD (Index Median Survival Duration)
5 | Clc1ccc(C(=Cn2ccnc2)C2CCCCC2)c(Cl)c1 [VI, 1-[2-cyclohexyl-2-(2,4-dichlorophenyl)ethenyl]-IH-imidazole hydrochloride] | 3.7
6 | CCC(C)C(=Cn1ccnc1)c1ccc(Cl)cc1 (stereo not shown) [II, 1-[2-(4-chlorophenyl)-3-methyl-1-pentenyl] -lH-imidazole] | 3.8
7 | CCCC(=Cn1ccnc1)c1ccc(Cl)cc1Cl.Cl [I, 1-[2-(2,4-dichlorophenyl)-1-pentenyl]-1H-imidazol hydrochloride] | 1.4

same assay, conditions: p.o., three doses daily for 3 days, control animals = 1

Row | Structure (SMILES) | IMSD (Index Median Survival Duration)
8 | Clc1ccc(C(=Cn2ccnc2)C2CCCCC2)c(Cl)c1 [VI, 1-[2-cyclohexyl-2-(2,4-dichlorophenyl)ethenyl]-IH-imidazole hydrochloride] | 3.9
9 | CCC(C)C(=Cn1ccnc1)c1ccc(Cl)cc1 (stereo not shown) [II, 1-[2-(4-chlorophenyl)-3-methyl-1-pentenyl] -lH-imidazole] | 4.6
10 | CCCC(=Cn1ccnc1)c1ccc(Cl)cc1Cl.Cl [I, 1-[2-(2,4-dichlorophenyl)-1-pentenyl]-1H-imidazol hydrochloride] | 3.0

test system: Candida albicans; experiment: agar dilution test, Candida albicans; type: cell-based; conditions: 48 h, after 2 d, complete inhibition of 50% of the strains tested, read-out: MIC 50
Procedure: (§1) The compounds of the invention were tested in vitro and in vivo. The in vitro activities were determined by means of the usual agar dilution test. The results after two and five days were expressed as MIC 50 and MIC 90, i.e. the minimum concentrations giving complete inhibition of 50% or 90% of the strains tested in […] and as Potency Ratio (P.R.), i.e. the ratio between the activity of the test compound and the activity of miconazol (= 1).

Row | MIC50 | Structure (SMILES)
11 | 2 ng/mL (≈ 0.00767 µM) | CCC(C)C(=Cn1ccnc1)c1ccc(Cl)cc1 (stereo not shown) [II, 1-[2-(4-chlorophenyl)-3-methyl-1-pentenyl] -lH-imidazole]
12 | 3 ng/mL | CCCC(=Cn1ccnc1)c1ccc(Cl)cc1Cl.Cl [I, 1-[2-(2,4-dichlorophenyl)-1-pentenyl]-1H-imidazol hydrochloride]

Row | Structure (SMILES) | MIC50
13 | Clc1ccc(C(=Cn2ccnc2)C2CCCCC2)c(Cl)c1 [VI, 1-[2-cyclohexyl-2-(2,4-dichlorophenyl)ethenyl]-IH-imidazole hydrochloride] | 4 ng/mL

same assay, conditions: 48 h, after 2 d, complete inhibition of 90% of the strains tested, read-out: MIC 90

Row | MIC90 | Structure (SMILES)
14 | 5 ng/mL (≈ 0.0192 µM) | CCC(C)C(=Cn1ccnc1)c1ccc(Cl)cc1 (stereo not shown) [II, 1-[2-(4-chlorophenyl)-3-methyl-1-pentenyl] -lH-imidazole]
15 | 8 ng/mL | CCCC(=Cn1ccnc1)c1ccc(Cl)cc1Cl.Cl [I, 1-[2-(2,4-dichlorophenyl)-1-pentenyl]-1H-imidazol hydrochloride]

Row | Structure (SMILES) | MIC90
16 | Clc1ccc(C(=Cn2ccnc2)C2CCCCC2)c(Cl)c1 [VI, 1-[2-cyclohexyl-2-(2,4-dichlorophenyl)ethenyl]-IH-imidazole hydrochloride] | 8 ng/mL

same assay, conditions: 2 d, ratio to activity of miconazol (= 1)

Row | Potency Ratio (P.R.) MIC 50 | Potency Ratio (P.R.) MIC 90 | Structure (SMILES)
17 | 1.7 | 1.7 | CCC(C)C(=Cn1ccnc1)c1ccc(Cl)cc1 (stereo not shown) [II, 1-[2-(4-chlorophenyl)-3-methyl-1-pentenyl] -lH-imidazole]
18 | 1.0 | 1.2 | CCCC(=Cn1ccnc1)c1ccc(Cl)cc1Cl.Cl [I, 1-[2-(2,4-dichlorophenyl)-1-pentenyl]-1H-imidazol hydrochloride]

Row | Structure (SMILES) | Potency Ratio (P.R.) MIC 50 | Potency Ratio (P.R.) MIC 90
19 | Clc1ccc(C(=Cn2ccnc2)C2CCCCC2)c(Cl)c1 [VI, 1-[2-cyclohexyl-2-(2,4-dichlorophenyl)ethenyl]-IH-imidazole hydrochloride] | 0.9 | 0.7

same assay, conditions: 120 h, after 5 d, complete inhibition of 50% of the strains tested, read-out: MIC 50

Row | MIC50 | Structure (SMILES)
20 | 4 ng/mL (≈ 0.0153 µM) | CCC(C)C(=Cn1ccnc1)c1ccc(Cl)cc1 (stereo not shown) [II, 1-[2-(4-chlorophenyl)-3-methyl-1-pentenyl] -lH-imidazole]
21 | 4 ng/mL | CCCC(=Cn1ccnc1)c1ccc(Cl)cc1Cl.Cl [I, 1-[2-(2,4-dichlorophenyl)-1-pentenyl]-1H-imidazol hydrochloride]

Row | Structure (SMILES) | MIC50
22 | Clc1ccc(C(=Cn2ccnc2)C2CCCCC2)c(Cl)c1 [VI, 1-[2-cyclohexyl-2-(2,4-dichlorophenyl)ethenyl]-IH-imidazole hydrochloride] | 5 ng/mL

same assay, conditions: 120 h, after 5 d, complete inhibition of 90% of the strains tested, read-out: MIC 90

Row | MIC90 | Structure (SMILES)
23 | 6 ng/mL (≈ 0.023 µM) | CCC(C)C(=Cn1ccnc1)c1ccc(Cl)cc1 (stereo not shown) [II, 1-[2-(4-chlorophenyl)-3-methyl-1-pentenyl] -lH-imidazole]
24 | 9 ng/mL | CCCC(=Cn1ccnc1)c1ccc(Cl)cc1Cl.Cl [I, 1-[2-(2,4-dichlorophenyl)-1-pentenyl]-1H-imidazol hydrochloride]

Row | Structure (SMILES) | MIC90
25 | Clc1ccc(C(=Cn2ccnc2)C2CCCCC2)c(Cl)c1 [VI, 1-[2-cyclohexyl-2-(2,4-dichlorophenyl)ethenyl]-IH-imidazole hydrochloride] | 11 ng/mL

same assay, conditions: 5 d, ratio to activity of miconazol (= 1)

Row | Potency Ratio (P.R.) MIC 50 | Potency Ratio (P.R.) MIC 90 | Structure (SMILES)
26 | 1.2 | 1.9 | CCC(C)C(=Cn1ccnc1)c1ccc(Cl)cc1 (stereo not shown) [II, 1-[2-(4-chlorophenyl)-3-methyl-1-pentenyl] -lH-imidazole]
27 | 1.0 | 0.7 | CCCC(=Cn1ccnc1)c1ccc(Cl)cc1Cl.Cl [I, 1-[2-(2,4-dichlorophenyl)-1-pentenyl]-1H-imidazol hydrochloride]

Row | Structure (SMILES) | Potency Ratio (P.R.) MIC 50 | Potency Ratio (P.R.) MIC 90
28 | Clc1ccc(C(=Cn2ccnc2)C2CCCCC2)c(Cl)c1 [VI, 1-[2-cyclohexyl-2-(2,4-dichlorophenyl)ethenyl]-IH-imidazole hydrochloride] | 0.8 | 0.6

test system: Trichophyton spp.; experiment: agar dilution test, Trichophyton spp.; type: cell-based; conditions: 5 d, ratio to activity of miconazol (= 1)
Procedure: as §1

Row | Potency Ratio (P.R.) MIC 50 | Potency Ratio (P.R.) MIC 90 | Structure (SMILES)
29 | 2.8 | 2.1 | CCC(C)C(=Cn1ccnc1)c1ccc(Cl)cc1 (stereo not shown) [II, 1-[2-(4-chlorophenyl)-3-methyl-1-pentenyl] -lH-imidazole]
30 | 35.3 | 13.9 | CCCC(=Cn1ccnc1)c1ccc(Cl)cc1Cl.Cl [I, 1-[2-(2,4-dichlorophenyl)-1-pentenyl]-1H-imidazol hydrochloride]

Row | Structure (SMILES) | Potency Ratio (P.R.) MIC 50 | Potency Ratio (P.R.) MIC 90
31 | Clc1ccc(C(=Cn2ccnc2)C2CCCCC2)c(Cl)c1 [VI, 1-[2-cyclohexyl-2-(2,4-dichlorophenyl)ethenyl]-IH-imidazole hydrochloride] | 1.9 | 1.0

test system: Trichophyton mentagrophytes strain R 177; experiment: method C: experimental dermatophytic infection in guinea pigs; type: in vivo; conditions: local treatment, 2% in Plastibase, twice daily for 10 days; scored on 14th day; grades 1-4; untreated animals 4
Procedure: C. Testing of compounds against experimental dermatophytic infection. (Trichophyton mentagrophytes)
Out-bred blanco TNO female guinea pigs, five animals per group, weighing + 350 g, were prepared by depilation high in the middle of the back over an area 2.5 cm in diameter.
Inoculum was prepared from a culture of Trichophyton mentagrophytes strain R 177 on Mycological Agar. The harvested mycelial mat was diluted in a 20% dextrose solution in water and the suspension was smeared over the depilated area.
Local treatment with 2% concentration of the antimycotic in Plastibase started 72 hours after infection and concurrently the application of vehiculum (Plastibase) to the infected animals was initiated. The application was continued for 10 days and consisted of two applications daily of a measured quantity of ointment to the infected area.
Scoring of lesions and the final check was made on the 14th day after the infection was initiated. The lesions were graded as to the following parameters: • 1 = slight whitish scaling, with erythema • 2 = slight whitish or light yellow scaling with solitary haemorrhagias • 3 = thick whitish-yellow crust or scab • 4 = haemorrhagic ulcer or giant haemorrhagic thick scutula (crust).
The final results were recorded as the average of lesion intensities (A.L.I.) for each experimental group (treated with either test compound or reference compound and untreated control).

Row | Structure (SMILES) | A.L.I. (average of lesion intensities)
32 | Clc1ccc(C(=Cn2ccnc2)C2CCCCC2)c(Cl)c1 [VI, 1-[2-cyclohexyl-2-(2,4-dichlorophenyl)ethenyl]-IH-imidazole hydrochloride] | 0.4
33 | CCC(C)C(=Cn1ccnc1)c1ccc(Cl)cc1 (stereo not shown) [II, 1-[2-(4-chlorophenyl)-3-methyl-1-pentenyl] -lH-imidazole] | 0
34 | CCCC(=Cn1ccnc1)c1ccc(Cl)cc1Cl.Cl [I, 1-[2-(2,4-dichlorophenyl)-1-pentenyl]-1H-imidazol hydrochloride] | 0
